In US10294202B2, “Pyrrolidinones as herbicides” (FMC Corporation, priority 2013, dated 2019):

How the values were obtained:
Test in all cases: Test E preemergence herbicide test
Set-up in all cases: key: 0 = no effect, 100 = complete control
waterhemp = format: in vivo, Amaranthus rudis
Source text: (§1) Seeds of plant species selected from corn (Zea mays), soybean (Glycine max), velvetleaf (Abutilon theophrasti), lambsquarters (Chenopodium album), wild poinsettia (Euphorbia heterophylla), pigweed, palmer (palmer pigweed, Amaranthus palmeri), waterhemp (common waterhemp, Amaranthus rudis), surinam grass (Brachiaria decumbens), crabgrass, large (large crabgrass, Digitaria sanguinalis), crabgrass, Brazil (Brazilian crabgrass, Digitaria horizontalis), panicum, fall (fall panicum, Panicum dichotomiflorum), foxtail, giant (giant foxtail, Setaria faberii), foxtail, green (green foxtail, Setaria viridis), goosegrass (Eleusine indica), johnsongrass (Sorghum halepense), ragweed (common ragweed, Ambrosia elatior), barnyardgrass (Echinochloa crus-galli), sandbur (southern sandbur, Cenchrus echinatus), arrowleaf […] rhombifolia), ryegrass, Italian (Italian ryegrass, Lolium multiflorum), dayflower, VA (Virginia dayflower, Commelina virginica), field bindweed (Convolvulus arvensis), morningglory (Ipomoea coccinea), nightshade (eastern black nightshade, Solanum ptycanthum), kochia (Kochia scoparia), nutsedge, yellow (yellow nutsedge, Cyperus esculentus), cocklebur (common cocklebur, Xanthium strumarium), smartweed (ladysthumb smartweed, Polygonum Persicaria) and beggarticks (hairy beggarticks, Bidens pilosa), were planted into a silt loam soil and treated preemergence with test chemicals formulated in a non-phytotoxic solvent mixture which included a surfactant. Treated plants and controls were maintained in a greenhouse for 21 days, after which time all species were compared to controls and visually evaluated. Plant response ratings, summarized in Table E, are based on a scale of 0 to 100 where 0 is no effect and 100 is complete control. A dash (-) response means no test result.

ragweed = format: in vivo, Ambrosia elatior
Source text: as §1

sandbur = format: in vivo, Cenchrus echinatus
Source text: as §1

ryegrass, Italian = format: in vivo, Lolium multiflorum
Source text: as §1

johnsongrass = format: in vivo, Sorghum halepense
Source text: as §1

beggarticks = format: in vivo, Bidens pilosa
Source text: as §1

panicum, fall = format: in vivo, Panicum dichotomiflorum
Source text: as §1

soybean = format: in vivo, Glycine max
Source text: as §1

| Structure (SMILES) | Plant response rating, Waterhemp (waterhemp; 31 g ai/ha) | Plant response rating, Waterhemp (waterhemp; 62 g ai/ha) | Plant response rating, Waterhemp (waterhemp; 125 g ai/ha) | Plant response rating, Waterhemp (waterhemp; 250 g ai/ha) | Plant response rating, Ragweed (ragweed; 62 g ai/ha) | Plant response rating, Ragweed (ragweed; 125 g ai/ha) | Plant response rating, Ragweed (ragweed; 250 g ai/ha) | Plant response rating, Sandbur (sandbur; 31 g ai/ha) | Plant response rating, Sandbur (sandbur; 62 g ai/ha) | Plant response rating, Sandbur (sandbur; 125 g ai/ha) | Plant response rating, Sandbur (sandbur; 250 g ai/ha) | Plant response rating, Ryegrass, Italian (ryegrass, Italian; 31 g ai/ha) | Plant response rating, Ryegrass, Italian (ryegrass, Italian; 62 g ai/ha) | Plant response rating, Ryegrass, Italian (ryegrass, Italian; 125 g ai/ha) | Plant response rating, Ryegrass, Italian (ryegrass, Italian; 250 g ai/ha) | Plant response rating, Johnsongrass (johnsongrass; 31 g ai/ha) | Plant response rating, Johnsongrass (johnsongrass; 62 g ai/ha) | Plant response rating, Johnsongrass (johnsongrass; 125 g ai/ha) | Plant response rating, Johnsongrass (johnsongrass; 250 g ai/ha) | Plant response rating, Beggarticks (beggarticks; 125 g ai/ha) | also measured |
| --- | --- | --- | --- | --- | --- | --- | --- | --- | --- | --- | --- | --- | --- | --- | --- | --- | --- | --- | --- | --- | --- |
| O=C1NCC(c2ccc(F)cc2)C1C(=O)Nc1ccccc1F (racemic) [Compound 16] | 0 | 0 | 0 | 0 | 0 | 0 | 0 | 0 | 35 | 70 | 95 | 0 | 0 | 0 | 30 | 0 | 0 | 0 | 0 | 0 | Plant response rating, Waterhemp (waterhemp; 16 g ai/ha): 0; Plant response rating, Sandbur (sandbur; 16 g ai/ha): 0; Plant response rating, Ryegrass, Italian (ryegrass, Italian; 16 g ai/ha): 0; Plant response rating, Johnsongrass (johnsongrass; 16 g ai/ha): 0; Plant response rating, Beggarticks (beggarticks; 16 g ai/ha): 0; Plant response rating, Beggarticks (beggarticks; 250 g ai/ha): 0; Plant response rating, Panicum, Fall (panicum, fall; 16 g ai/ha): 0; Plant response rating, Panicum, Fall (panicum, fall; 31 g ai/ha): 0; Plant response rating, Panicum, Fall (panicum, fall; 62 g ai/ha): 0; Plant response rating, Panicum, Fall (panicum, fall; 125 g ai/ha): 0; Plant response rating, Soybean (soybean; 16 g ai/ha): 0; Plant response rating, Soybean (soybean; 31 g ai/ha): 0; Plant response rating, Soybean (soybean; 62 g ai/ha): 0; Plant response rating, Soybean (soybean; 125 g ai/ha): 0; Plant response rating, Soybean (soybean; 250 g ai/ha): 0 |
| O=C1NCC(c2cccc(Br)c2)C1C(=O)Nc1ccccc1F (centres unmarked) [Compound 66] | 0 | 0 | 0 | 0 | 0 | 0 | 20 | 0 | 0 | 0 | 35 | 0 | 0 | 0 | 0 | 0 | 0 | 0 | 0 | 0 | Plant response rating, Waterhemp (waterhemp; 16 g ai/ha): 0; Plant response rating, Ragweed (ragweed; 16 g ai/ha): 0; Plant response rating, Ragweed (ragweed; 31 g ai/ha): 0; Plant response rating, Sandbur (sandbur; 16 g ai/ha): 0; Plant response rating, Ryegrass, Italian (ryegrass, Italian; 16 g ai/ha): 0; Plant response rating, Johnsongrass (johnsongrass; 16 g ai/ha): 0; Plant response rating, Beggarticks (beggarticks; 16 g ai/ha): 0; Plant response rating, Beggarticks (beggarticks; 31 g ai/ha): 0; Plant response rating, Beggarticks (beggarticks; 62 g ai/ha): 0; Plant response rating, Beggarticks (beggarticks; 250 g ai/ha): 0; Plant response rating, Panicum, Fall (panicum, fall; 16 g ai/ha): 0; Plant response rating, Panicum, Fall (panicum, fall; 31 g ai/ha): 0; Plant response rating, Panicum, Fall (panicum, fall; 62 g ai/ha): 0; Plant response rating, Panicum, Fall (panicum, fall; 125 g ai/ha): 0; Plant response rating, Panicum, Fall (panicum, fall; 250 g ai/ha): 0; Plant response rating, Soybean (soybean; 16 g ai/ha): 0; Plant response rating, Soybean (soybean; 31 g ai/ha): 0; Plant response rating, Soybean (soybean; 62 g ai/ha): 0; Plant response rating, Soybean (soybean; 125 g ai/ha): 0; Plant response rating, Soybean (soybean; 250 g ai/ha): 0 |
| O=C1NCC(c2ccc(C(F)(F)F)cc2)C1C(=O)Nc1ccc(F)c(F)c1F (centres unmarked) [Compound 232] | 35 | 80 | 85 | 95 | 75 | 95 | 95 | 35 | 65 | 90 | 90 | 0 | 10 | 20 | 40 | 0 | 0 | 0 | 25 | 20 | Plant response rating, Ragweed (ragweed; 31 g ai/ha): 35; Plant response rating, Beggarticks (beggarticks; 31 g ai/ha): 0; Plant response rating, Beggarticks (beggarticks; 62 g ai/ha): 0; Plant response rating, Beggarticks (beggarticks; 250 g ai/ha): 60; Plant response rating, Panicum, Fall (panicum, fall; 31 g ai/ha): 35; Plant response rating, Panicum, Fall (panicum, fall; 62 g ai/ha): 50; Plant response rating, Panicum, Fall (panicum, fall; 125 g ai/ha): 50; Plant response rating, Panicum, Fall (panicum, fall; 250 g ai/ha): 60; Plant response rating, Soybean (soybean; 31 g ai/ha): 0; Plant response rating, Soybean (soybean; 62 g ai/ha): 0; Plant response rating, Soybean (soybean; 125 g ai/ha): 0; Plant response rating, Soybean (soybean; 250 g ai/ha): 0 |
